Experimental data from article PMC8948797 (International Journal of Molecular Sciences, 2022).

System: hALN
Assay: cytoplasmic calcium measurements (Fluo-8) in hALN
Assay type: cell-based, human
Conditions: 50 mM KCl, 21–30-day-old hALN, Figure S2
Text: Figure 3 Characterization of the hALN. (A) 1 s-long depolarizing, and hyperpolarizing pulses injected into a hALN neuron. […] (E) Representative image of Fluo-8-loaded cells and region of interest for individual cells for intensity measurements (white line). […] Data are presented as fluorescence intensity in arbitrary units.
To test the effect of NPFFR2 on the cytoplasmic calcium dynamics, we measured intracellular calcium concentrations using hALNs loaded with Fluo-8. Typically, neurons display calcium oscillations with synchronized patterns, as cells become mature and capable of forming electrical connections with one another. We first recorded basal spontaneous activity in 21–30-day old hALNs and observed synchronized calcium oscillations in 30–70% of cells (Figure 3D–F).
In 8 ± 3% cells, we detected no change, and the remaining 13 ± 5% cells increased their oscillation rate (n = 12).
Cytosolic (Ca2+)i was measured using Ca^2+ indicator Fluo-8. […] Baseline signal was measured at 488 nm excitation and 510 nm emission using inCell analyzer 2000 for 5 min. […] After the background subtraction, calcium responses were processed and analyzed using ImageJ. Mean intensity over time was measured in ROIs including cytoplasmic soma area of individual cells and their traceable extensions. […] Data are presented as fluorescence intensity in arbitrary units. […]

## [Cl-].[K+] [KCl]
  cytoplasmic calcium response to KCl: induced a cytoplasmic calcium transient increase
